The values below are quoted from earlier work in publication PMC8147660 (The Prostate, 2018).

The target in one series is PSA. To be noted: read-out: PSA Ki; described in previous studies.
In the next series the target is chymotrypsin. The conditions noted are these: read-out: Ki for chymotrypsin; described in previous studies.
For series [1] the following is noted: cleared via A2M-receptor/LRP in the liver.

Consider Ahx-FSQn(boro)Bpg, for which the Ki on PSA is 72 nM; on chymotrypsin it was 580 nM.
Take “PSA-A2M: PSA complexed with the serum protease inhibitor alpha-2-macroglobulin”: the “Plasma half-life of the complex” value in series [1] was “a few minutes”.

Broadly, the Ki is a dissociation constant, usually derived from enzyme kinetics or from competition with a known ligand.
